Patent US11491167B2, “Combination product of Bcl-2 inhibitor and chemotherapeutic agent and use thereof in the prevention and/or treatment of diseases” (ASCENTAGE PHARMA (SUZHOU) CO., LTD., priority 2018, dated 2022)
Several values for one entry are separate records, joined by “and”; a condition that tells them apart may be missing. Equal values may be shown once. Read-outs that look alike come from different tables or passages of the source.

Key:
[1] = test system: human NCI-H146 (SCLC) mouse xenograft tumor model; settings: 5 mice per group; for RTV on day 21 after administration (mean ± standard error) / T/C (%) on day 21 after administration / RTV on day 35 after administration (mean ± standard error) / T/C (%) on day 35 after administration: Compound 6 100 mg/kg p.o. qd; for RTV on day 21 after administration (mean ± standard error) / T/C (%) on day 21 after administration: TPT 1 mg/kg p.o. d1-5/w then d1-3/w; for RTV on day 35 after administration (mean ± standard error) / T/C (%) on day 35 after administration: TPT 1 mg/kg p.o.; for CR (tumor complete regression), mice on day 21 after administration / PR (tumor partial regression), mice on day 21 after administration: Compound 6 100 mg/kg, TPT 1 mg/kg; for CR (tumor complete regression), mice on day 46 after administration / PR (tumor partial regression), mice on day 46 after administration / Tumor remission rate % on day 46 after administration: day 46, observation after discontinuation; for Tumor remission rate % on day 21 after administration / Tumor remission rate % on day 46 after administration: remission including CR, PR and SD
Protocol: A subcutaneous xenograft tumor model of human tumor immunodeficient mice was established by cell inoculation: tumor cells in logarithmic growth phase were collected, counted and resuspended in 1×PBS, and the cell suspension concentration was adjusted to 2.5-5×10^7/mL. Using a 1 mL syringe ([…]), the tumor cells were inoculated subcutaneously in the right side of immunodeficient mice, 5-10×106/0.2 mL/mouse (All animals were purchased from Beijing Vital River Laboratory Animal Technology Co., Ltd. SCXK (Beijing) 2012-0001). All animal experiments were strictly in accordance with the laboratory animal use and management practices of GenePharma Co., Ltd. and Ascentage Pharma Group Co., Ltd. The calculation of relevant parameters referred to the Chinese CFDA “Guidelines for Non-Clinical Research Techniques of Cytotoxic Antitumor Drugs”. The NCI-H146 cells used in the Institute were a gift from Professor Wang Shaomeng of the University of Michigan, USA.
Animal body weight and tumor size were measured twice a week during the experiment. The conditions and death of the animals were observed every day. Routine monitoring included the effects of tumor growth and treatment on normal animal behaviors, including activity, feeding and drinking situations, weight gain or loss, eyes, coat and other abnormalities in the experimental animals. The deaths and clinical symptoms observed during the experiment were recorded in the raw data. The entire operations of administration, measurement of mouse body weight and tumor volume were performed in a clean bench. Plasma and tumor tissues were collected, weighed and photographed after the end of the last administration according to the experimental protocol. Plasma and tumor samples were frozen and stored at −80° C.
Tumor volume (TV) was calculated as: TV=a×b2/2, in which a and b represented the length and width of the tumor as measured, respectively. The relative tumor volume (RTV) was calculated as: RTV=Vt/V1, in which V1 was the tumor volume at the time of grouping and administration, and Vt was the tumor volume measured on a day after administration. […] Change of body weight %=(measured body weight−body weight at the time of grouping)/body weight at the time of grouping×100%.
The synergistic analysis was performed by the following formula 6: synergy factor=((A/C)×(B/C))/(AB/C); A=RTV value of the group administered with A only; B=RTV value of the group administered with B only; C=RTV value of the vehicle control group; AB=RTV value of the group administered with A and B in combination (Clarke R. Issues in experimental design and endpoint analysis in the study of experimental cytotoxic agents in vivo in breast cancer and other models [J]. Breast Cancer Research & Treatment, 1997, 46(2-3): 255-278).
(1) The experimental method was as described in Section (2) of Example 1. In the experiment, the SCLC mouse xenograft tumor model derived from human NCI-H146 tumor cells was established (Gould S E et al. Translational value of mouse models in oncology drug development. Nature medicine. 2015 21, 431-439). When the tumor volume reached 100-200 mm3, randomization was performed according to tumor volume and mouse body weight, and two independent in vivo experiments were performed on the model to evaluate the anti-tumor effects of the combination of Compound 6 and the chemotherapeutic agent TPT (topotecan).
In this experiment, Compound 6 was administered at a dose of 100 mg/kg, p.o., qd; TPT was administered at a dose of 1 mg/kg, p.o., d1-5/w (i.e., a 2-day interval after 5 days of administration).

[2] = test system: NCI-H146 (small cell lung cancer (SCLC)); assay: WST (CCK-8) anti-proliferation experiment, topotecan alone or combined with Compound 6; assay type: cell-based; settings: Homo sapiens, NCI-H146, 72 h, topotecan alone, read-out: IC50 for proliferation inhibition

In the case of `O=C(NS(=O)(=O)c1ccc(NC[C@H]2COCCO2)c([N+](=O)[O-])c1)c1ccc(N2CCN(CC3=C(c4ccc(Cl)cc4)CC4(CCC4)CC3)CC2)cc1Oc1cnc2[nH]ccc2c1` [Compound 6, (S)-N-((4-(((1,4-dioxan-2-yl)methyl)amino)-3-nitrophenyl)sulfonyl)-2-((1H-pyrrolo[2,3-b]pyridin-5-yl)oxy)-4-(4-((6-(4-chlorophenyl)spiro[3.5]non-6-en-7-yl)methyl)piperazin-1-yl)benzamide], the “RTV on day 21 after administration (mean ± standard error)” value [1] is reported as 2.51 ± 0.25, the “T/C (%) on day 21 after administration” value [1] is reported as 49% and the “RTV on day 35 after administration (mean ± standard error)” value [1] is reported as 4.89 ± 0.39. For the same compound, the “T/C (%) on day 35 after administration” value [1] was 52%, the “CR (tumor complete regression), mice on day 21 after administration” value [1] was 0/5CR, 0/5PR, and the “PR (tumor partial regression), mice on day 21 after administration” value [1] was 0/5CR, 0/5PR,. The “CR (tumor complete regression), mice on day 46 after administration” value [1] was 0/5CR, 0/5PR,, the “PR (tumor partial regression), mice on day 46 after administration” value [1] was 0/5CR, 0/5PR, and the “Tumor remission rate % on day 21 after administration” value [1] was 0%. The “Tumor remission rate % on day 46 after administration” value [1] was 0%.
In the case of `CC[C@@]1(O)C(=O)OCc2c1cc1n(c2=O)Cc2cc3c(CN(C)C)c(O)ccc3nc2-1` [topotecan], the IC50 ([2]; NCI-H146 (SCLC), first experiment) is reported as 127 nM, the IC50 ([2]; another NCI-H146 (SCLC) experiment) is reported as 68 nM and the “RTV on day 21 after administration (mean ± standard error)” value [1] is reported as 0.26 ± 0.12. For the same compound, the “T/C (%) on day 21 after administration” value [1] was 5%, the “RTV on day 35 after administration (mean ± standard error)” value [1] was 0.77 ± 0.35 and the “T/C (%) on day 35 after administration” value [1] was 8%. For the same compound, the “CR (tumor complete regression), mice on day 21 after administration” value ([1]; listed as TPT) was 2 and 2/5, the “PR (tumor partial regression), mice on day 21 after administration” value ([1]; listed as TPT) was 3 and 3/5 and the “CR (tumor complete regression), mice on day 46 after administration” value [1] was 2/5. For the same compound, the “PR (tumor partial regression), mice on day 46 after administration” value [1] was 0/5, the “Tumor remission rate % on day 21 after administration” value [1] was 100% and the “Tumor remission rate % on day 46 after administration” value [1] was 40%.
